Results published in US8217073B2, “Pyrrole derivatives as therapeutic compounds” (Myrexis, Inc., priority 2005, dated 2012).
Where “and” joins values, the source holds several entries; their conditions need not be identical. Identical values can stand only once.

Key:
Aβ42 secretion = Aβ42 secretion by H4 cells expressing APP695, sandwich ELISA; format: cell-based, human; conditions: medium collected at 24 or 48 hours, several numbers = independent sets of assays; for % Inhibition of Aβ42 Secretion @ 100 μM / inhibition at 100 µM: test compound 100 μM vs DMSO control; for IC50: about 1 μM to about 100 μM
Procedure: (§1) The present invention provides compositions and methods for lowering Aβ42 levels. To test whether compounds and compositions are capable of modulating Aβ levels in cultured cells, sandwich enzyme-linked immunosorbent assays (ELISAs) are employed to measure secreted Aβ (Aβ42 and/or Aβ40 levels). In this example, H4 cells expressing wide type APP695 are seeded at 200,000 cells per well in 6 well plates, and incubated at 37° C. with 5% CO2 overnight. Cells are treated with 1.5 ml medium containing vehicle (DMSO) or a test compound at 1.25 μM, 2.5 μM, 5.0 μM and 10.0 μM (as well as other concentration if desirable) for 24 hours or 48 hours. The supernatant from treated cells is collected into eppendorf tubes and frozen at −80° C. for future analysis.
(§2) The amyloid peptide standard is reconstituted and frozen samples are thawed. The samples and standards are diluted with appropriate diluents and the plate is washed 4 times with Working Wash Buffer and patted dry on a paper towel. 100 μL per well of peptide standards, controls, and dilutions of samples to be analyzed is added. The plate is incubated for 2 hours while shaking on an orbital plate shaker at RT. The plate is then washed 4 times with Working Wash Buffer and patted dry on a paper towel. Detection Antibody Solution is poured into a reservoir and 100 μL/well of Detection Antibody Solution is immediately added to the plate. The plate is incubated at RT for 2 hours while shaking and then washed four times with Working Wash Buffer and patted dry on a paper towel. Secondary Antibody Solution is then poured into a reservoir and 100 μL/well of Secondary Antibody Solution is immediately added to the plate. The plate is incubated at RT for 2 hours with shaking, washed 5 times with Working Wash Buffer, and patted dry on a paper towel.
(§3) 100 μL of stabilized chromogen is added to each well and the liquid in the wells begins to turn blue. The plate is incubated for 30 minutes at room temperature and in the dark. 100 μL of stop solution is added to each well and the plate is tapped gently to mix resulting in a change of solution color from blue to yellow. The absorbance of each well is read at 450 nm having blanked the plate reader against a chromogen blank composed of 100 μL each of stabilized chromogen and stop solution. The plate is read within 2 hours of adding the stop solution. The absorbance of the standards is plotted against the standard concentration and the concentrations of unknown samples and controls are calculated.
(§4) The present invention provides compositions and methods for lowering Aβ42 levels. To test whether compounds and compositions are capable of modulating Aβ levels, sandwich enzyme-linked immunosorbent assays (ELISAs) is employed to measure secreted Aβ42 and/or Aβ40 levels. In this example, H4 cells expressing wide type APP695 are seeded at 200,000 cells per well in 6 well plates, and incubated at 37° C. with 5% CO2 overnight. Cells are treated with 1.5 mL medium containing vehicle (DMSO) or a test compound at 1.25 μM, 2.5 μM, 5.0 μM and 10.0 μM concentration for 24 hours or 48 hours. The supernatant from treated cells is collected into eppendorf tubes and frozen at −80° C. for future analysis.
(§5) 130 μL per well of samples, standards, and blanks is added to a 96-well polypropylene plate. […] of samples, standards, and blanks from the polypropylene plate is added to the antibody-coated plates. The strip-holder with the appropriate number of strips is applied to the antibody-coated plates and the strips are covered with an adhesive sealer. The plate is then incubated 3 hours at room temperature while shaking on an orbital plate shaker.
(§6) The first antibody solution is prepared with Conjugate Diluent 1 at 1:100 ratio. Each well of the antibody-coated plates is washed 5 times with 400 μL washing solution and 100 μL of the prepared first antibody solution is added to each well. […]

Aβ40 secretion = Aβ40 secretion by H4 cells expressing APP695, sandwich ELISA; format: cell-based, human; conditions: medium collected at 24 or 48 hours, several numbers = independent sets of assays; for IC50: about 1 μM to about 100 μM; for inhibition at 100 µM / % Inhibition of Aβ40 Secretion @ 100 μM: test compound 100 μM vs DMSO control
Procedure: as §1, §2, §3, §4, §5, §6

| IC50 (Aβ40 secretion; Homo sapiens) [µM] | IC50 (Aβ40 secretion) | IC50 (Aβ42 secretion; Homo sapiens) [µM] | IC50 (Aβ42 secretion) [µM] | SMILES | % Inhibition of Aβ42 Secretion @ 100 μM (Aβ42 secretion) | inhibition at 100 µM (Aβ42 secretion; Homo sapiens) [%] | inhibition at 100 µM (Aβ40 secretion; Homo sapiens) [%] | % Inhibition of Aβ40 Secretion @ 100 μM (Aβ40 secretion) |
| --- | --- | --- | --- | --- | --- | --- | --- | --- |
| > 100 | 67 µM |  |  | Cc1c(-c2ccccc2)cc(-c2ccccc2)n1-c1ccc(CCCC(=O)O)cc1 [Compound 1, 4-[4-(2-Methyl-3,5-diphenyl-pyrrol-1-yl)-phenyl]-butyric acid] | 101% and 99% and 78% |  |  |  |
| > 100 |  | 48 |  | Cc1c(-c2ccccc2)cc(-c2ccccc2)n1-c1cccc(C(=O)O)c1 [Compound 2, 3-(2-Methyl-3,5-diphenyl-pyrrol-1-yl)-benzoic acid] |  | 76 | 36 |  |
| 98 |  | 37 |  | Cc1c(-c2ccccc2)cc(-c2ccccc2)n1-c1ccc(Cl)c(C(=O)O)c1 [Compound 3, 2-Chloro-5-(2-methyl-3,5-diphenyl-pyrrol-1-yl)-benzoic acid] |  | 89 | 52 |  |
| > 100 |  | 29 |  | COc1ccc(C(=O)O)cc1-n1c(-c2ccccc2)cc(-c2ccccc2)c1C [Compound 4, 4-Methoxy-3-(2-methyl-3,5-diphenyl-pyrrol-1-yl)-benzoic acid] |  | 84 | 22 |  |
| > 100 |  | 100 |  | Cc1c(-c2ccccc2)cc(-c2ccccc2)n1-c1cccc(CCC(=O)O)c1 [Compound 5, 3-[3-(2-Methyl-3,5-diphenyl-pyrrol-1-yl)-phenyl]-propionic acid] |  | 55 | 31 |  |
| > 100 |  | 30 |  | O=C(O)c1cccc(-n2cc(-c3ccccc3)cc2-c2ccccc2)c1 [Compound 6, 3-(2,4-Diphenyl-pyrrol-1-yl)-benzoic acid] |  | 74 | 32 |  |
| > 100 |  | 52 |  | O=C(O)CCCc1ccc(-n2cc(-c3ccccc3)cc2-c2ccccc2)cc1 [Compound 7, 4-[4-(2,4-Diphenyl-pyrrol-1-yl)-phenyl]-butyric acid] |  | 76 | 7 |  |
|  |  |  |  | Cc1c(-c2cccc(C(F)(F)F)c2)cc(-c2ccccc2)n1-c1cccc(C(=O)O)c1 [Compound 8, 3-[2-Methyl-5-phenyl-3-(3-trifluoromethyl-phenyl)-pyrrol-1-yl]-benzoic acid] | 80% | 94 |  | 88% and 64% |
| 28 |  | 15 |  | Cc1c(-c2cccc(C(F)(F)F)c2)cc(-c2ccccc2)n1-c1cccc(CCC(=O)O)c1 [Compound 9, 3-{3-[2-Methyl-5-phenyl-3-(3-trifluoromethyl-phenyl)-pyrrol-1-yl]-phenyl}-propionic acid] |  | 82 | 86 |  |
| 11 |  | 15 |  | Cc1c(-c2cccc(C(F)(F)F)c2)cc(-c2ccccc2)n1-c1ccc(CCCC(=O)O)cc1 [Compound 10, 4-{4-[2-Methyl-5-phenyl-3-(3-trifluoromethyl-phenyl)-pyrrol-1-yl]-phenyl}-butyric acid] |  | 79 | 97 |  |
| > 100 | 69 µM and 68 µM |  |  | CCc1c(-c2ccccc2)cc(-c2ccccc2)n1-c1cccc(C(=O)O)c1 [Compound 11, 3-(2-Ethyl-3,5-diphenyl-pyrrol-1-yl)-benzoic acid] | 94% and 78% | 92 |  |  |
| > 100 |  | 34 |  | CCc1c(-c2ccccc2)cc(-c2ccccc2)n1-c1cccc(CCC(=O)O)c1 [Compound 12, 3-[3-(2-Ethyl-3,5-diphenyl-pyrrol-1-yl)-phenyl]-propionic acid] |  | 85 | 27 |  |
| > 100 |  | 12 |  | CCc1c(-c2ccccc2)cc(-c2ccccc2)n1-c1ccc(CCCC(=O)O)cc1 [Compound 13, 4-[4-(2-Ethyl-3,5-diphenyl-pyrrol-1-yl)-phenyl]-butyric acid] |  | 83 | 14 |  |
|  |  |  |  | Cc1c(-c2ccccc2)cc(-c2ccc(C(F)(F)F)cc2)n1-c1cccc(C(=O)O)c1 [Compound 14, 3-[2-Methyl-3-phenyl-5-(4-trifluoromethyl-phenyl)-pyrrol-1-yl]-benzoic acid] | 101% and 99% and 92% | 96 |  |  |
| 82 |  | 21 |  | Cc1c(-c2ccccc2)cc(-c2ccc(C(F)(F)F)cc2)n1-c1cccc(CCC(=O)O)c1 [Compound 15, 3-{3-[2-Methyl-3-phenyl-5-(4-trifluoromethyl-phenyl)-pyrrol-1-yl]-phenyl}-propionic acid] |  | 96 | 63 |  |
|  |  | 5 | 10 | Cc1c(-c2ccccc2)cc(-c2ccc(C(F)(F)F)cc2)n1-c1ccc(CCCC(=O)O)cc1 [Compound 16, 4-{4-[2-Methyl-3-phenyl-5-(4-trifluoromethyl-phenyl)-pyrrol-1-yl]-phenyl}-butyric acid] | 102% | 97 | 78 | 93% |
| > 100 |  | 10 |  | Cc1c(-c2ccccc2)cc(-c2ccc(Cl)c(Cl)c2)n1-c1cccc(C(=O)O)c1 [Compound 17, 3-[5-(3,4-Dichloro-phenyl)-2-methyl-3-phenyl-pyrrol-1-yl]-benzoic acid] |  | 83 | 10 |  |
| > 100 |  | 10 |  | Cc1c(-c2ccccc2)cc(-c2ccc(Cl)c(Cl)c2)n1-c1cccc(CCC(=O)O)c1 [Compound 18, 3-{3-[5-(3,4-Dichloro-phenyl)-2-methyl-3-phenyl-pyrrol-1-yl]-phenyl}-propionic acid] |  | 94 | 41 |  |
| > 100 | 65 µM |  |  | Cc1c(-c2ccccc2)cc(-c2ccc(Cl)c(Cl)c2)n1-c1ccc(CCCC(=O)O)cc1 [Compound 19, 4-{4-[5-(3,4-Dichloro-phenyl)-2-methyl-3-phenyl-pyrrol-1-yl]-phenyl}-butyric acid] | 109% | 95 |  | 42% and 78% |
| > 100 |  | 21 |  | CCOC(=O)c1cc(CCc2ccccc2)n(-c2cccc(C(=O)O)c2)c1-c1ccccc1 [Compound 20, 1-(3-Carboxy-phenyl)-5-phenethyl-2-phenyl-1H-pyrrole-3-carboxylic acid ethyl ester] |  | 95 | 49 |  |
| > 100 |  | 55 |  | CCOC(=O)c1cc(CCc2ccccc2)n(-c2cccc(CCC(=O)O)c2)c1-c1ccccc1 [Compound 21, 1-[3-(2-Carboxy-ethyl)-phenyl]-5-phenethyl-2-phenyl-1H-pyrrole-3-carboxylic acid ethyl ester] |  | 66 | 38 |  |
| 40 |  | 55 |  | CCOC(=O)c1cc(CCc2ccccc2)n(-c2ccc(CCCC(=O)O)cc2)c1-c1ccccc1 [Compound 22, 1-[4-(3-Carboxy-propyl)-phenyl]-5-phenethyl-2-phenyl-1H-pyrrole-3-carboxylic acid ethyl ester] |  | 68 | 65 |  |
| 70 |  | 23 |  | O=C(O)c1cccc(-n2c(CCc3ccccc3)ccc2-c2ccccc2)c1 [Compound 23, 3-(2-Phenethyl-5-phenyl-pyrrol-1-yl)-benzoic acid] |  | 77 | 67 |  |
